# Experiments:
# IRAK4 = IRAK4 (Homo sapiens (Human), UniProt Q9NWZ3); experiment: IRAK4 Inhibition Assay; type: biochemical; conditions: ATP 500 μM; IRAK4 0.6 nM; 60 min room temperature
# Experimental: The assays were performed in U-bottom 384-well plates. The final assay volume was 30 μL prepared from 15 μL additions of enzyme and substrates (fluoresceinated peptide and ATP) and test compounds in assay buffer (20 mM HEPES pH 7.2, 10 mM MgCl2, 0.015% Brij 35 and 4 mM DTT). The reaction was initiated by the combination of IRAK4 with substrates and test compounds. The reaction mixture was incubated at room temperature for 60 min. and terminated by adding 45 μL of 35 mM EDTA to each sample. The reaction mixture was analyzed on the Caliper LABCHIP® 3000 (Caliper, Hopkinton, Mass.) by electrophoretic separation of the fluorescent substrate and phosphorylated product. Inhibition data were calculated by comparison to no enzyme control reactions for 100% inhibition and vehicle-only reactions for 0% inhibition. The final concentrations of reagents in the assays are ATP, 500 μM; FL-IPTSPITTTYFFFKKK peptide 1.5 μM; IRAK4, 0.6 nM; and DMSO, 1.6%.
# Human whole blood = experiment: IRAK4 Whole Blood Assay (TLR2 agonist lipoteichoic acid induced IL-6); type: cell-based; conditions: 10 μg/mL lipoteichoic acid (TLR2 agonist), 5 hours, IL-6 levels
# Experimental: Human whole blood containing the anti-coagulant ACD-A was plated in 384-well plate (25 μL/well) and incubated with compounds for 60 minutes at 37° C. in a 5% CO2 incubator. The blood was stimulated with a TLR2 agonist, 10 μg/mL final concentration of lipoteichoic acid (Invivogen, San Diego, Calif.) in 25 μL RPMI (Gibco) for 5 hours in a 5% CO2 incubator. At the end of the incubation, plates were centrifuged at 2300 rpm for 5 minutes. Supernatants were harvested and analyzed for IL-6 levels by Flow Cytometry beads assay (BD Biosciences, San Jose, Calif.).
# IRAK4, sequence (Q9NWZ3 whole entry): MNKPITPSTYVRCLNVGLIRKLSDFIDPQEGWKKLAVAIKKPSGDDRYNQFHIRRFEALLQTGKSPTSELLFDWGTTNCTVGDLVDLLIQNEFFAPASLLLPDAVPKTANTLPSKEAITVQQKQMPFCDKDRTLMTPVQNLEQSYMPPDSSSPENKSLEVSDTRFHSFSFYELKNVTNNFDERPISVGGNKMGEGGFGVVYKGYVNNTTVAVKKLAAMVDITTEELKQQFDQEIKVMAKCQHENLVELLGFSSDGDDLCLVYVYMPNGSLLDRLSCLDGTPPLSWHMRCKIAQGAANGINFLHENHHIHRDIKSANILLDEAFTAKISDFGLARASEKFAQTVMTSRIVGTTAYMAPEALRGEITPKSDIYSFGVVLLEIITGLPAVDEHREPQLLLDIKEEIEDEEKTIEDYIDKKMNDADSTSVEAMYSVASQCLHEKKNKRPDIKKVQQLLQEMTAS
Compound,IC50 (IRAK4),EC50 (Human whole blood)
"CC(C)Nc1cc(-c2cnn3cc(C#N)cnc23)ncc1-n1cc(C(C)(C)O)cn1 [Example 1, 3-(5-(4-(2-hydroxypropan-2-yl)-1H-pyrazol-1-yl)-4-(isopropylamino)pyridin-2-yl) pyrazolo[1,5-a]pyrimidine-6-carbonitrile]",578 nM,–
"CC(C)Nc1cc(-c2cnc3cc(Cl)cnn23)ncc1-c1cnn(CC(C)(C)O)c1 [Example 4, 1-(4-(6-(7-chloroimidazo[1,2-b]pyridazin-3-yl)-4-(isopropylamino)pyridin-3-yl)-1H-pyrazol-1-yl)-2-methylpropan-2-ol]",396 nM,–
"CC(C)Nc1cc(-c2cnc3cc(C#N)cnn23)ncc1-c1cnn(CC(C)(C)O)c1 [Example 5, 3-(5-(1-(2-hydroxy-2-methylpropyl)-1H-pyrazol-4-yl)-4-(isopropylamino)pyridin-2-yl)imidazo[1,2-b]pyridazine-7-carbonitrile]",174 nM,–
"CCCn1cc(-c2cnc(-c3cnc4cc(C#N)cnn34)cc2NC(C)C)cn1 [Example 6, 3-(4-(isopropylamino)-5-(1-propyl-1H-pyrazol-4-yl)pyridin-2-yl)imidazo[1,2-b]pyridazine-7-carbonitrile]",18 nM,4410 nM
"CC(C)Nc1cc(-c2cnc3cc(Cl)cnn23)ncc1-c1cnn(CC(F)(F)F)c1 [Example 7, 2-(7-chloroimidazo[1,2-b]pyridazin-3-yl)-N-isopropyl-5-(1-(2,2,2-trifluoroethyl)-1H-pyrazol-4-yl)pyridin-4-amine]",53 nM,–
"CC(C)Nc1cc(-c2cnc3cc(C#N)cnn23)ncc1-c1cnn(CC(F)(F)F)c1 [Example 8, 3-(4-(isopropylamino)-5-(1-(2,2,2-trifluoroethyl)-1H-pyrazol-4-yl)pyridin-2-yl)imidazo[1,2-b]pyridazine-7-carbonitrile]",43 nM,–
"CCCn1cc(-c2cnc(-c3cnc4cc(Cl)cnn34)cc2Nc2cnn(CC(F)F)c2)cn1 [Example 9, 2-(7-chloroimidazo[1,2-b]pyridazin-3-yl)-N-(1-(2,2-difluoroethyl)-1H-pyrazol-4-yl)-5-(1-propyl-1H-pyrazol-4-yl)pyridin-4-amine]",29 nM,–
"CCCn1cc(-c2cnc(-c3cnc4cc(C#N)cnn34)cc2Nc2cnn(CC(F)F)c2)cn1 [Example 10, 3-(4-((1-(2,2-difluoroethyl)-1H-pyrazol-4-yl)amino)-5-(1-propyl-1H-pyrazol-4-yl)pyridin-2-yl)imidazo[1,2-b]pyridazine-7-carbonitrile]",20 nM,–
"COC(=O)N1CCC(n2cc(-c3cnc(-c4cnc5cc(Cl)cnn45)cc3NC3CC3)nn2)[C@](C)(O)C1 (stereo partly drawn) [Example 21, (3R)-methyl 4-(4-(6-(7-chloroimidazo[1,2-b]pyridazin-3-yl)-4-(cyclopropylamino)pyridin-3-yl)-1H-1,2,3-triazol-1-yl)-3-hydroxy-3-methylpiperidine-1-carboxylate]",14 nM,2870 nM
"CC(C)(O)CCc1cn(-c2cnc(-c3cnn4cc(C#N)cnc34)cc2NC2CC(F)(F)C2)nn1 [Example 24, 3-(4-((3,3-difluorocyclobutyl)amino)-5-(4-(3-hydroxy-3-methylbutyl)-1H-1,2,3-triazol-1-yl)pyridin-2-yl)pyrazolo[1,5-a]pyrimidine-6-carbonitrile]",14 nM,780 nM
"CC(C)(O)CCc1cn(-c2cnc(-c3cnn4cc(C#N)cnc34)cc2NC2COC2)nn1 [Example 26, 3-(5-(4-(3-hydroxy-3-methylbutyl)-1H-1,2,3-triazol-1-yl)-4-(oxetan-3-ylamino)pyridin-2-yl)pyrazolo[1,5-a]pyrimidine-6-carbonitrile]",–,160 nM

# Further lines, results first:
IC50 (IRAK4),EC50 (Human whole blood),Compound
14 nM,1030 nM,"CC(C)Nc1cc(-c2cnc3cc(C#N)cnn23)ncc1-c1cnn(C2CCOCC2)c1 [Example 3, 3-(4-(isopropylamino)-5-(1-(tetrahydro-2H-pyran-4-yl)-1H-pyrazol-4-yl)pyridin-2-yl)imidazo[1,2-b]pyridazine-7-carbonitrile]"
3 nM,950 nM,"CC(C)Nc1cc(-c2cnn3cc(Cl)cnc23)ncc1-n1cc(CCC(C)(C)O)nn1 [Example 13, 4-(1-(6-(6-chloropyrazolo[1,5-a]pyrimidin-3-yl)-4-(isopropylamino)pyridin-3-yl)-H-1,2,3-triazol-4-yl)-2-methylbutan-2-ol]"
9 nM,820 nM,"CC(C)(O)CCc1cn(-c2cnc(-c3cnn4cc(Cl)cnc34)cc2NC2COC2)nn1 [Example 14, 4-(1-(6-(6-chloropyrazolo[1,5-a]pyrimidin-3-yl)-4-(oxetan-3-ylamino)pyridin-3-yl)-1H-1,2,3-triazol-4-yl)-2-methylbutan-2-ol]"
2 nM,–,"CC(C)Nc1cc(-c2cnc3cc(C#N)cnn23)ncc1-c1cn(C2CCOCC2)nn1 [Example 16, 3-(4-(isopropylamino)-5-(1-(tetrahydro-2H-pyran-4-yl)-1H-1,2,3-triazol-4-yl)pyridin-2-yl)imidazo[1,2-b]pyridazine-7-carbonitrile]"
2 nM,–,"CC(=O)N1CC(n2cc(-c3cnc(-c4cnc5cc(C#N)cnn45)cc3NC(C)C)nn2)C1 [Example 17, 3-(5-(1-(1-acetylazetidin-3-yl)-1H-1,2,3-triazol-4-yl)-4-(isopropylamino)pyridin-2-yl)imidazo[1,2-b]pyridazine-7-carbonitrile]"
3 nM,2320 nM,"CCCn1cc(-c2cnc(-c3cnc4cc(Cl)cnn34)cc2NC2CC2)nn1 [Example 19, 2-(7-chloroimidazo[1,2-b]pyridazin-3-yl)-N-cyclopropyl-5-(1-propyl-1H-1,2,3-triazol-4-yl)pyridin-4-amine]"
12 nM,–,"CCCn1cc(-c2cnc(-c3cnc4cc(Cl)cnn34)cc2NC(C)C)nn1 [Example 20, 2-(7-chloroimidazo[1,2-b]pyridazin-3-yl)-N-isopropyl-5-(1-propyl-1H-1,2,3-triazol-4-yl)pyridin-4-amine]"
9 nM,990 nM,"CC(C)(O)CCc1cn(-c2cnc(-c3cnn4cc(Cl)cnc34)cc2NC2CCOCC2)nn1 [Example 23, 4-(1-(6-(6-chloropyrazolo[1,5-a]pyrimidin-3-yl)-4-((tetrahydro-2H-pyran-4-yl)amino)pyridin-3-yl)-1H-1,2,3-triazol-4-yl)-2-methylbutan-2-ol]"
5 nM,590 nM,"CC(C)Nc1cc(-c2cnc3cc(C#N)cnn23)ncc1-c1cc(C2CCOCC2)[nH]n1 [Example 28, 3-(4-(isopropylamino)-5-(5-(tetrahydro-2H-pyran-4-yl)-1H-pyrazol-3-yl)pyridin-2-yl)imidazo[1,2-b]pyridazine-7-carbonitrile]"
2 nM,510 nM,"CC(C)(O)CCc1cc(-c2cnc(-c3cnn4cc(C#N)cnc34)cc2NC2CCOCC2)n[nH]1 [Example 29, 3-(5-(5-(3-hydroxy-3-methylbutyl)-1H-pyrazol-3-yl)-4-((tetrahydro-2H-pyran-4-yl)amino)pyridin-2-yl)pyrazolo[1,5-a]pyrimidine-6-carbonitrile]"

# From patent US10202390B2, “Heteroaryl substituted aminopyridine compounds” (BRISTOL-MYERS SQUIBB COMPANY, priority 2015, dated 2019)
